Laboratory results: paper PMC5476731, “Molecular Basis of N,N-Diethyl-3-Methylbenzamide (DEET) in Repelling the Common Bed Bug, Cimex lectularius” (Frontiers in Physiology, 2017)

Legend:
Test in all cases: two-electrode voltage clamp, Xenopus oocytes
Format in all cases: cell-based, Cimex lectularius
OR36/ORCO = tested on: T1, OR36/ORCO; conditions: agonist; co-expressed ORCO; -80 mV; pH 7.6 Ringer; text rounds to 7.1 × 10^−6
T1 construct: cRNA (pT7Ts vector) co-injected with ORCO into Xenopus laevis oocytes; with Odorant receptor coreceptor

OR37/ORCO = tested on: T2, OR37/ORCO; conditions: agonist; co-expressed ORCO; -80 mV; pH 7.6 Ringer; text b25 prints 6.5 × 10^−6 (discrepant)
T2 construct: cRNA (pT7Ts vector) co-injected with ORCO into Xenopus laevis oocytes; with Odorant receptor coreceptor

OR20/ORCO = tested on: T3, OR20/ORCO; conditions: agonist; co-expressed ORCO; -80 mV; pH 7.6 Ringer; text rounds to 7.5 × 10^−6
T3 construct: cRNA (pT7Ts vector) co-injected with ORCO into Xenopus laevis oocytes; with Odorant receptor coreceptor

`CCN(CC)C(=O)c1cccc(C)c1` [DEET, N,N-Diethyl-3-Methylbenzamide] was tested, and the EC50 (OR36/ORCO) was 7.096 × 10^−6 v/v, the EC50 (OR37/ORCO) was 6.684 × 10^−6 v/v and the EC50 (OR20/ORCO) was 7.468 × 10^−6 v/v.
